Numbers after ± are expanded uncertainties.
Assay: molar heat capacity at constant pressure
Settings: 100 kPa, Crystal, DSC

O=c1oc2c(O)c(O)cc3c(=O)oc4c(O)c(O)cc1c4c23 [2,3,7,8-tetrahydroxychromeno[5,4,3-cde]chromene-5,10-dione]
Settings	molar heat capacity at constant pressure [J/K/mol]
260.15 K	292.07 ± 14
261.15 K	292.68 ± 14
262.15 K	293.58 ± 14
263.15 K	294.64 ± 14
264.15 K	295.85 ± 14
265.15 K	297.06 ± 14
266.15 K	297.97 ± 14
267.15 K	298.87 ± 14
268.15 K	299.93 ± 14
269.15 K	301.59 ± 14
270.15 K	303.41 ± 14
271.15 K	303.41 ± 14
272.15 K	304.01 ± 14
273.15 K	305.37 ± 14
274.15 K	307.49 ± 14
275.15 K	308.39 ± 14
276.15 K	308.09 ± 14
277.15 K	308.54 ± 14
278.15 K	310.36 ± 14
279.15 K	311.57 ± 14
280.15 K	311.26 ± 14
281.15 K	312.62 ± 14
282.15 K	314.29 ± 15
283.15 K	315.19 ± 15
284.15 K	315.95 ± 15
285.15 K	316.25 ± 15
286.15 K	317.16 ± 15
287.15 K	318.97 ± 15
288.15 K	320.33 ± 15
289.15 K	319.72 ± 15
290.15 K	320.48 ± 15
291.15 K	321.84 ± 15
292.15 K	323.35 ± 15
293.15 K	323.05 ± 15
294.15 K	324.26 ± 15
295.15 K	325.47 ± 15
296.15 K	326.4 ± 15
297.15 K	327.73 ± 15
298.15 K	328.85 ± 15
299.15 K	329.64 ± 15
300.15 K	330.7 ± 15
301.15 K	331.91 ± 15
302.15 K	332.12 ± 15
303.15 K	333.63 ± 15
304.15 K	334.99 ± 16
305.15 K	335.69 ± 16
306.15 K	336.45 ± 16
307.15 K	337.53 ± 16
308.15 K	338.02 ± 16
309.15 K	339.27 ± 16
310.15 K	339.49 ± 16
311.15 K	340.77 ± 16
312.15 K	341.16 ± 16
313.15 K	342.26 ± 16
314.15 K	343.3 ± 16
315.15 K	343.78 ± 16
316.15 K	345.03 ± 16
317.15 K	346.85 ± 16
318.15 K	347.5 ± 16
319.15 K	348.3 ± 16
320.15 K	349.21 ± 16
321.15 K	350.81 ± 16
322.15 K	351.92 ± 16
323.15 K	352.53 ± 16
324.15 K	353.13 ± 16
325.15 K	354.43 ± 16
326.15 K	355.55 ± 16
327.15 K	356.86 ± 17
328.15 K	357.07 ± 17
329.15 K	358.38 ± 17
330.15 K	359.69 ± 17
331.15 K	361.39 ± 17
332.15 K	362.3 ± 17
333.15 K	363.1 ± 17
334.15 K	364.21 ± 17
335.15 K	365.02 ± 17
336.15 K	366.23 ± 17
337.15 K	367.13 ± 17
338.15 K	368.24 ± 17
339.15 K	369.55 ± 17
340.15 K	370.36 ± 17
341.15 K	370.96 ± 17
342.15 K	371.07 ± 17
343.15 K	372.48 ± 17
344.15 K	373.08 ± 17
345.15 K	373.69 ± 17
346.15 K	374.1 ± 17
347.15 K	375.31 ± 17
348.15 K	376.31 ± 17
349.15 K	377.02 ± 17
350.15 K	378.82 ± 18
351.15 K	379.03 ± 18
352.15 K	379.54 ± 18
353.15 K	381.35 ± 18
354.15 K	383.99 ± 18
355.15 K	385.91 ± 18
356.15 K	385.3 ± 18
357.15 K	386.51 ± 18
358.15 K	387.62 ± 18
359.15 K	388.02 ± 18
360.15 K	390.04 ± 18
361.15 K	391.3 ± 18
362.15 K	392.55 ± 18
363.15 K	393.1 ± 18
364.15 K	393.5 ± 18
365.15 K	394.2 ± 18
366.15 K	395.1 ± 18
367.15 K	396 ± 18
368.15 K	396.5 ± 18
369.15 K	397.3 ± 18
370.15 K	397.8 ± 18
371.15 K	398 ± 18
372.15 K	399.5 ± 19
373.15 K	400.1 ± 19
374.15 K	401.2 ± 19
375.15 K	402.5 ± 19
376.15 K	403.1 ± 19
377.15 K	403.8 ± 19
378.15 K	404.5 ± 19
379.15 K	405.3 ± 19
380.15 K	406.12 ± 19
381.15 K	407.6 ± 19
382.15 K	408.2 ± 19
383.15 K	409.5 ± 19
384.15 K	410.1 ± 19
385.15 K	411.31 ± 19
386.15 K	412.22 ± 19
387.15 K	413.52 ± 19
388.15 K	414.82 ± 19
389.15 K	415.43 ± 19
390.15 K	416.64 ± 19
391.15 K	417.54 ± 19
392.15 K	418.85 ± 19
393.15 K	419.15 ± 19
394.15 K	420.36 ± 19
395.15 K	421.26 ± 20
396.15 K	421.57 ± 20
397.15 K	422.17 ± 20
398.15 K	423.08 ± 20
399.15 K	423.98 ± 20
400.15 K	424.59 ± 20
401.15 K	424.59 ± 20
402.15 K	425.19 ± 20
403.15 K	426.4 ± 20
404.15 K	427.31 ± 20
405.15 K	427 ± 20
406.15 K	427.31 ± 20
407.15 K	427.91 ± 20
408.15 K	429.42 ± 20
409.15 K	430.03 ± 20
410.15 K	430.78 ± 20
411.15 K	431.39 ± 20
412.15 K	432.44 ± 20
413.15 K	432.9 ± 20
414.15 K	433.5 ± 20
415.15 K	434.56 ± 20
416.15 K	435.77 ± 20
417.15 K	436.2 ± 20
418.15 K	437 ± 20
419.15 K	438.2 ± 20
420.15 K	439.1 ± 20
421.15 K	440.5 ± 20
422.15 K	441.2 ± 20
423.15 K	442.3 ± 21
424.15 K	443.93 ± 21
425.15 K	444.5 ± 21
426.15 K	444.8 ± 21
427.15 K	445.1 ± 21
428.15 K	445.9 ± 21
429.15 K	446.2 ± 21
430.15 K	446.8 ± 21
431.15 K	447.3 ± 21
432.15 K	448.2 ± 21
433.15 K	448.6 ± 21
434.15 K	449.4 ± 21
435.15 K	450.58 ± 21
436.15 K	451.79 ± 21
437.15 K	452.39 ± 21
438.15 K	452.69 ± 21
439.15 K	452.99 ± 21
440.15 K	453.9 ± 21
441.15 K	454.71 ± 21
442.15 K	455.32 ± 21
443.15 K	455.41 ± 21
444.15 K	455.71 ± 21
445.15 K	456.02 ± 21
446.15 K	457.53 ± 21
447.15 K	457.83 ± 21
448.15 K	458.43 ± 21
449.15 K	459.04 ± 21
450.15 K	459.64 ± 21
451.15 K	459.94 ± 21
452.15 K	460.2 ± 21
453.15 K	460.85 ± 21
454.15 K	461.14 ± 21
455.15 K	460.85 ± 21
456.15 K	461.3 ± 21
457.15 K	461.76 ± 21
458.15 K	462.11 ± 21
459.15 K	462.61 ± 21
460.15 K	463.82 ± 22
461.15 K	464.57 ± 22
462.15 K	465.08 ± 22
463.15 K	466.38 ± 22
464.15 K	467.05 ± 22
465.15 K	468.71 ± 22
466.15 K	468.5 ± 22
467.15 K	469 ± 22
468.15 K	469.5 ± 22
469.15 K	470.1 ± 22
470.15 K	470.8 ± 22
471.15 K	471.2 ± 22
472.15 K	471.5 ± 22
473.15 K	472.94 ± 22
474.15 K	473.85 ± 22
475.15 K	474.15 ± 22
476.15 K	474.75 ± 22
477.15 K	475.05 ± 22
478.15 K	476.26 ± 22
479.15 K	477.17 ± 22
480.15 K	477.47 ± 22
481.15 K	478.38 ± 22
482.15 K	479.59 ± 22
483.15 K	480.19 ± 22
484.15 K	480.39 ± 22
485.15 K	481.19 ± 22
486.15 K	482 ± 22
487.15 K	482.31 ± 22
488.15 K	482.61 ± 22
489.15 K	483.31 ± 22
490.15 K	484.21 ± 22
491.15 K	485.63 ± 23
492.15 K	486.93 ± 23
493.15 K	487.54 ± 23
494.15 K	488.84 ± 23
495.15 K	489.26 ± 23
496.15 K	489.26 ± 23
497.15 K	489.56 ± 23
498.15 K	489.26 ± 23
499.15 K	490.77 ± 23
500.15 K	491.28 ± 23
501.15 K	492.18 ± 23
502.15 K	493.28 ± 23
503.15 K	494.19 ± 23
504.15 K	495 ± 23
505.15 K	495.3 ± 23
506.15 K	495 ± 23
507.15 K	494.7 ± 23
508.15 K	495 ± 23
509.15 K	495 ± 23
510.15 K	495.3 ± 23
511.15 K	496 ± 23
512.15 K	497.72 ± 23
513.15 K	497.82 ± 23
514.15 K	498.32 ± 23
515.15 K	499.23 ± 23
516.15 K	499.5 ± 23
517.15 K	500.1 ± 23
518.15 K	501.3 ± 23
519.15 K	501.8 ± 23
520.15 K	502.5 ± 23
521.15 K	503.1 ± 23
522.15 K	503.6 ± 23

Reference: the NIST ThermoML archive (doi:10.1016/j.jct.2018.09.027)
